Data set [1] can be described thus: Total chlorine and free chlorine concentration by DPD method. The data set is classed as physicochemical. The conditions noted are these: for free chlorine (FRC) concentration: sulfamic acid:sodium hypochlorite 1.2:1, pH >12. The source says:
The total chlorine concentration (amount) can be detected according to the following method. The combined chlorine can oxidize the iodide into iodine. The iodine and free chlorine can react with DPD (N,N-Diethyl-p-phenylenediamine) to form a red substance, and which can be used to represent the concentration of the total chlorine (using the absorbance obtained at 530 nm measurement to represent the concentration of total chlorine). The above free chlorine concentration (amount) may be determined by the following method. The free chlorine which may exist in the form of hypochlorous acid or ions of hypochlorite can react with DPD (N, N-Diethyl-p-phenylenediamine) indicator rapidly to form a pink-colored substance, and the strength of such color can be used to indicate the amount of free chlorine, for example the concentration of free chlorine is determined by the measurements of absorbance on 530 nm. The combined chlorine concentration in water is calculated by subtracting free chlorine concentration from total chlorine concentration (i.e., TRC-FRC). In the present invention, TRC and FRC are measured for example by HACH DR2800 spectrophotometer.
In order to further reduce the FRC, the second stabilizer ammonium sulfate was used in the present example. In the present example, 67 g sodium hypochlorite and 13 g sulfamic acid (sulfamic acid ≥99.5%, AR, Sinopharm Chemical Reagent Co. Ltd.) were first added to 20 g water. The molar ratio between sulfamic acid and sodium hypochlorite was 1.2 to 1. Then the pH was adjusted to more than 12 by sodium hydroxide. According to the addition amount of sodium hypochlorite, the different molar ratios of second stabilizer ammonium sulfates were added. After the solution was uniformly mixed, DPD and iodine were used to determine the TC concentration and DPD was used to determine the FRC concentration.
In the present example, the second stabilizer ammonium sulfate was used in dilute solution to research the reducing effect on FRC. In the present example, 67 g sodium hypochlorite and 13 g sulfamic acid (sulfamic acid ≥99.5%, AR, Sinopharm Chemical Reagent Co. Ltd.) were first added to 3020 g water. The molar ratio between sulfamic acid and sodium hypochlorite was 1.2 to 1. Comparing to the concentration of the sodium hypochlorite and sulfamic acid of the example 1, that of the example 2 was diluted to about 30 times. Then the pH was adjusted to more than 12 by sodium hydroxide. According to the addition amount of sodium hypochlorite, the different molar ratios of second stabilizer ammonium sulfates were added. After the solution was mixed uniformly, DPD and iodine were used to determine the TC concentration and DPD was used to determine the FRC concentration.

In data set [2] the test system is floating bacteria in water. As to the kind of experiment: Bactericidal effect on the bacteria in water (Total Bacteria Count). The conditions noted are these: raw water; total chlorine 2 ppm and 10 ppm; 3 hours and 24 hours; FIG. 3. As for the experimental part: This example is mainly focused on using the present method or combination to inhibit the floating bacteria in water. The raw water without adding any biocides was used as the control group. The total chlorine concentration in water was controlled at 2 ppm and 10 ppm, separately. Sodium hypochlorite and two kinds of stabilizers were added to the raw water and sample obtained was used as the experimental group (dual stabilizers). Moreover, the group wherein only sodium hypochlorite was added was the control experimental group 1 (Cl2) and the group wherein sodium hypochlorite and one stabilizer were added to the raw water was the control experimental group 2 (single stabilizer). In the control experimental group 1 and 2, the total chlorine concentrations were controlled at 2 ppm and 10 ppm, separately. The addition method of the above substances and the substances used were identical to the examples 1 or 2. […] After placing the control group, the control experimental group 1, 2 and the experimental group for 3 hours and 24 hours, the number of the bacteria in the water of these samples were determined and compared. The bacterial number was indicated by the Total Bacteria Count (sometimes abbreviated as TBC in the following description), which was determined by referencing the method of 3M™ Petrifilm™ Aerobic Count Plates.

Molecules are shown by their SMILES.

As for `N.N.O=S(=O)(O)O` [second stabilizer, ammonium sulfate], the “free chlorine (FRC) concentration” value is given as “about 40 ppm” in data set [1] (concentrated solution, 0.3 moles second stabilizer per 1 mole sodium hypochlorite, reduced from 1200 ppm, FIG. 1) and “about 20 ppm” in data set [1] (dilute solution, 0.4 moles second stabilizer per 1 mole sodium hypochlorite, reduced from about 50 ppm, FIG. 2). In data set [1] (concentrated solution, 0.3 moles second stabilizer per 1 mole sodium hypochlorite, FIG. 1), the “effect on total chlorine” value is given as “without affecting the total chlorine”. Besides, the “effect on total chlorine amount” value in data set [1] (dilute solution, 0.4 moles second stabilizer per 1 mole sodium hypochlorite, FIG. 2) is “without affecting the total chlorine amount”.
Consider `OCl` [sodium hypochlorite], for which the “bactericidal effect (Total Bacteria Count)” value in data set [2] is “strongest bactericidal effect”.

Values taken from patent publication US10086335B2, “Composition and method for biofouling inhibition of membrane separation device” (Ecolab USA Inc., priority 2013, dated 2018).
